Measured values as given in US20230310554A1 (priority 2020, published 2023).
Values joined by “and” are separate entries in the source; they are usually repeats but may differ in a detail not shown here. Identical values can stand only once.

Legend:
PC-12 cells = type: cell-based, rat; conditions: for EC50: read-out: EC50 of cyanide under existence of each antidote
[1] = test system: cyanide poisoning mouse models; parameters: species or system mouse (ddY); conditions: in vivo
[2] = test system: cyanide poisoning mouse models; parameters: species or system mouse (ddY); conditions: in vivo; remark: listed apart in the source
[3] = test system: cyanide poisoning mouse models; parameters: species or system mouse (ddY); conditions: in vivo; remark: listed apart in the source
[4] = test system: plasma proteins such as haptocorrin; conditions: cited from earlier work

Row | Compound | cell viability compared with the control group to which only NaCN had been added (PC-12 cells) | EC50 (PC-12 cells) | mice survived [1] [%] | survival rate [2] | time required until the recovery (coma to awakening) [3] | reduction of antidotal ability by binding to plasma proteins [4]
1 | O=S([O-])([O-])=S.[Na+].[Na+] [Na2S2O3, sodium thiosulfate] | had no effects | 9.98 mM and 12.5 mM and 12.1 mM and 10.4 mM and 10.7 mM | – | – | – | –
2 | C/C1=C2/[N-][C@H]([C@H](CC(N)=O)[C@@]2(C)CCC(=O)NC[C@@H](C)OP(=O)([O-])O[C@H]2[C@@H](O)[C@@H](n3cnc4cc(C)c(C)cc43)O[C@@H]2CO)[C@]2(C)N=C(/C(C)=C3N=C(/C=C4N=C1[C@@H](CCC(N)=O)C\4(C)C)[C@@H](CCC(N)=O)[C@]\3(C)CC(N)=O)[C@@H](CCC(N)=O)[C@]2(C)CC(N)=O.[Co+3].[OH-] [OHCbl, hydroxocobalamin] | high survival rate | – | 50 | 90% and 70% and 60% | 4.8 min and 4.6 min | 1/600
3 | metHb: methemoglobin produced by oxidizing OxyHb with sodium nitrite | significantly high survival rate | 23.3 mM and 28.8 mM and 31.1 mM and 19.1 mM | – | – | – | –
